From patent publication US5734077A, “Substituted 2,2-dimethyl-omega-phenoxyalkanoic acids and esters” (Adir ET Compagnie, priority 1995, dated 1998) come the findings set out here.

Test [1] concerns human low density lipoproteins (LDLs). As to the kind of experiment: protective activity against oxidation of human LDLs induced by copper sulphate (TBARS determination). Conditions: copper sulphate 5 μM, 3 hours at 37° C., read-out: IC50, protection against the oxidation of LDLs. It is filed as biochemical. As for the experimental part:
The dose-effect relationship of those compounds was compared with that of probucol and a soluble analogue of vitamin E, trolox.
The anti-oxidant activity of the compounds was measured according to the method of Wallin et al. (Analytical Biochemistry, 1993, 208, 10-15).
Human LDLs are incubated for 3 hours at 37° C. in the presence of an oxidising agent, copper sulphate at a concentration of 5 μM, and of the compound to be tested at concentrations ranging from 10^-8 M to 2.5×10^-6 M. A non-oxidised control (LDLs only) and an oxidised control (LDLs plus copper sulphate) are also included in each of the series of tests.
The products of the LDL oxidation reaction are quantified by the colorimetric determination of "thiobarbituric acid reactive substances" (TBARS).
The protective activity of the tested compounds is expressed by the IC50 value, which corresponds to the concentration of product required to inhibit by 50% the oxidation of LDLs observed in the absence of product. The IC50 value was calculated from the dose-response curve.

For test [2], the system named is plasma lipids (triglycerides, total cholesterol). As to the kind of experiment: hypolipaemic activity in vivo in a diet-induced model of combined hyperlipaemia in the hamster. Set-up: species or system Golden Syrian hamster. Conditions: 200 mg/kg/day per os, 1 week; for change in vivo at 200 mg/kg: Mesocricetus auratus, po, 168 h, hamsters on lipid-rich diet, versus control group, bezafibrate: mean ± sem of five experiments; for hypocholesterolaemic effect compared with bezafibrate (in words) / triglyceride-lowering effectiveness compared with bezafibrate (in words): hamster, bezafibrate 200 mg/kg/day. Here is the method:
The hypolipaemic activity of certain representative compounds of the invention was evaluated in vivo in a diet-induced model of combined hyperlipaemia in the hamster.
Golden Syrian hamsters are given a diet rich in lipids (standard diet+0.5% cholesterol+10% cocoa oil) for 3 weeks before the beginning of treatment. That diet induces hypercholesterolaemia and hypertriglyceridaemia.
The products are prepared in tragacanth gum and are administered per os by forced gastric feeding for 1 week at a dose of 200 mg/kg/day. Each product is tested on a group of 6 animals. A placebo group (control) and a group of animals treated with a reference product (bezafibrate at a dose of 200 mg/kg/day) are included in each experiment.
At the end of the treatment, the animals are anaesthetised with ether. Blood is removed by abdominal puncture and the triglycerides and total cholesterol in the serums are determined. Five independent experiments were carried out in accordance with that protocol in order to evaluate the hypolipaemic effect of thirteen compounds of this invention.
The results are shown in Table B. The effect of the treatment is expressed as a percentage variation by comparison with the control group, calculated from the means of the absolute values of triglycerides and of total cholesterol. A negative value thus reflects a hypolipaemic effect of the treatment indicated. The values shown for bezafibrate represent the mean values (±sem) of five experiments.

The mark [3] stands for this setting: read-out: Total cholesterol (% variation/control).
Where [4] appears, read: read-out: Triglycerides (% variation/control).

The structures appear in SMILES notation. Where two headings read alike, the source gives them in different places.

In general, IC50 refers to the concentration needed to halve the response being measured. Regarding `Cc1c(C)c2c(c(C)c1O)CCC(C)(C=CCCOc1ccc(OCCCC(C)(C)C(=O)O)cc1)O2` (racemic) [Example 17, R,S-2,2-dimethyl-5-{4-[4-(6-hydroxy-2,5,7,8-tetramethyl-3,4-dihydrobenzopyran-2-yl)but-3-enyloxy]phenoxy}pentanoic acid], the IC50 in test [1] was 0.96 µM.

Regarding `Cc1c(C)c2c(c(C)c1O)CCC(C)(CCCCOc1ccc(OCCCC(C)(C)C(=O)O)cc1)O2` (racemic) [Example 18, R,S -2,2-dimethyl-5-{4-[4-(6-hydroxy-2,5,7,8-tetramethyl-3,4-dihydrobenzopyran-2-yl)butyloxy]phenoxy}pentanoic acid], the 50% inhibitory concentration (IC50) in test [1] came out at 0.72 µM. For the same compound, the results for the change in vivo at 200 mg/kg in test [2] (setting [3]) and in test [2] (setting [4]) were -61% and -79%, respectively.

Consider `Cc1c(C)c2c(c(C)c1O)CCC(C)(CCCc1cccc(OCCCC(C)(C)C(=O)O)c1)O2` (racemic) [Example 19, R,S-2,2-dimethyl-5-{3-[3-(6-hydroxy-2,5,7,8-tetramethyl-3,4-dihydrobenzopyran-2-yl)-propyl]phenoxy}pentanoic acid], for which the IC50 in test [1] amounted to 0.68 µM.

Turning to `CC(C)(Oc1ccc(CCNC(=O)c2ccc(Cl)cc2)cc1)C(=O)O` [Bezafibrate, bezafibrate, reference compound], the change in vivo at 200 mg/kg is -48 ± 4% in test [2] (setting [3]) and -46 ± 19% in test [2] (setting [4]).

Regarding `CC(C)(CCCOc1ccc(CCSc2cc(C(C)(C)C)c(O)c(C(C)(C)C)c2)cc1)C(=O)O` [Example 1, 2,2-Dimethyl-5-{4-[2-(3,5-di-tert-butyl-4-hydroxyphenylthio)ethyl]phenoxy}pentanoic acid], the IC50 in test [1] was 0.42 µM.

In the case of `CC(C)(CCCOc1ccc(CCSc2cc(C(C)(C)C)c(O)c(C(C)(C)C)c2)cc1)C(=O)O` [Example 2, 2,2-dimethyl-5-{4-[2-(3,5-di-tert-butyl-4-hydroxyphenylthio)ethyl]phenoxy}pentanoic acid], in test [1], the IC50 was determined as 0.21 µM. Moreover, in test [2], the “hypocholesterolaemic effect compared with bezafibrate (in words)” value is reported as “hypocholesterolaemic effect at least as great as bezafibrate”. For the same compound, in test [2], the “triglyceride-lowering effectiveness compared with bezafibrate (in words)” value is “statistically at least as effective as bezafibrate”. In addition, the change in vivo at 200 mg/kg was -52% in test [2] (setting [3]) and -82% in test [2] (setting [4]).

As for `CC(C)(CCCOc1ccc(CCCSc2cc(C(C)(C)C)c(O)c(C(C)(C)C)c2)cc1)C(=O)O` [Example 3, 2,2-dimethyl-5-{4-[3-(3,5-di-tert-butyl-4-hydroxyphenylthio)propyl]phenoxy}pentanoic acid], in test [1], the IC50 was determined as 0.53 µM. The “hypocholesterolaemic effect compared with bezafibrate (in words)” value in test [2] is “hypocholesterolaemic effect at least as great as bezafibrate”. Besides, in test [2], the “triglyceride-lowering effectiveness compared with bezafibrate (in words)” value was “statistically at least as effective as bezafibrate”. The change in vivo at 200 mg/kg in test [2] (setting [3]) is -77%; in test [2] (setting [4]) it was -87%.

With `Cc1cc(SCCCc2ccc(OCCCC(C)(C)C(=O)O)cc2)c(C)c(C)c1O` [Example 4, 2,2-dimethyl-5-{4-[3-(4-hydroxy-2,3,5-trimethylphenylthio)propyl]phenoxy}pentanoic acid], the IC50 in test [1] was 0.46 µM. In addition, the change in vivo at 200 mg/kg in test [2] (setting [3]) is -48%; in test [2] (setting [4]), -77%.

`CC(C)(CCCOc1ccc(OCCCSc2cc(C(C)(C)C)c(O)c(C(C)(C)C)c2)cc1)C(=O)O` [Example 5, 2,2-dimethyl-5-{4-[3-(3,5-di-tert-butyl-4-hydroxyphenylthio)propyloxy]phenoxy}pentanoic acid]: the IC50 in test [1] was 0.55 µM.

On to `Cc1cc(SCCCOc2ccc(OCCCC(C)(C)C(=O)O)cc2)c(C)c(C)c1O` [Example 6, 2,2-dimethyl-5-{4-[3-(4-hydroxy-2,3,5-trimethylphenylthio)propyloxy]phenoxy}pentanoic acid], for which the IC50 in test [1] is 0.17 µM. For the same compound, the change in vivo at 200 mg/kg is -39% in test [2] (setting [3]) and -59% in test [2] (setting [4]).

In the case of `Cc1cc(SCCc2cccc(OCCCC(C)(C)C(=O)O)c2)c(C)c(C)c1O` [Example 7, 2,2-dimethyl-5-{3-[2-(4-hydroxy-2,3,5-trimethylphenylthio)ethyl]phenoxy}pentanoic acid], the IC50 in test [1] amounted to 0.068 µM. In addition, in test [2], the “hypocholesterolaemic effect compared with bezafibrate (in words)” value was “hypocholesterolaemic effect at least as great as bezafibrate” and the “triglyceride-lowering effectiveness compared with bezafibrate (in words)” value is given as “statistically at least as effective as bezafibrate”. In test [2] (setting [3]), the change in vivo at 200 mg/kg is -47%. For the same compound, the change in vivo at 200 mg/kg in test [2] (setting [4]) was -83%.

`CC(C)(CCCOc1cccc(CCSc2cc(C(C)(C)C)c(O)c(C(C)(C)C)c2)c1)C(=O)O` [Example 8, 2,2-dimethyl-5-{3-[2-(3,5-di-tert-butyl-4-hydroxyphenylthio)ethyl]phenoxy}pentanoic acid]: the IC50 in test [1] was found to be 0.38 µM. Moreover, the change in vivo at 200 mg/kg in test [2] (setting [3]) and in test [2] (setting [4]) was -59% throughout.

For the compound `Cc1cc(OCCc2ccc(OCCCC(C)(C)C(=O)O)cc2)c(C)c(C)c1O` [Example 9, 2,2-dimethyl-5-{4-[2-(4-hydroxy-2,3,5-trimethylphenoxy)ethyl]phenoxy}pentanoic acid], in test [1], the IC50 came out at 0.2 µM.

As for `CC(C)(CCCOc1ccc(CCCOc2cc(C(C)(C)C)c(O)c(C(C)(C)C)c2)cc1)C(=O)O` [Example 10, 2,2-dimethyl-5-{4-[3-(3,5-di-tert-butyl-4-hydroxyphenoxy)propyl]phenoxy}pentanoic acid], the IC50 in test [1] stood at 0.24 µM.

As to `Cc1cc(OCCCOc2ccc(OCCCC(C)(C)C(=O)O)cc2)c(C)c(C)c1O` [Example 11, 2,2-dimethyl-5-{4-[3-(4-hydroxy-2,3,5-trimethylphenoxy)propyloxy]phenoxy}pentanoic acid], the IC50 in test [1] turned out to be 0.19 µM. The change in vivo at 200 mg/kg was -55% in test [2] (setting [3]) and -60% in test [2] (setting [4]).

On to `CC(C)(CCCOc1ccc(OCCCOc2cc(C(C)(C)C)c(O)c(C(C)(C)C)c2)cc1)C(=O)O` [Example 12, 2,2-dimethyl-5-{4-[3-(3,5-di-tert-butyl-4-hydroxyphenoxy)propyloxy]phenoxy}pentanoic acid], for which, in test [1], the IC50 was determined as 0.64 µM. Also, in test [2], the “hypocholesterolaemic effect compared with bezafibrate (in words)” value is reported as “hypocholesterolaemic effect at least as great as bezafibrate” and the “triglyceride-lowering effectiveness compared with bezafibrate (in words)” value is listed as “statistically at least as effective as bezafibrate”. In addition, the change in vivo at 200 mg/kg in test [2] (setting [3]) was -63%. In addition, the change in vivo at 200 mg/kg in test [2] (setting [4]) is -84%.

Consider `CC(C)(CCCOc1cccc(CCOc2cc(C(C)(C)C)c(O)c(C(C)(C)C)c2)c1)C(=O)O` [Example 13, 2,2-dimethyl-5-{3-[2-(3,5-di-tert-butyl-4-hydroxyphenoxy)ethyl]phenoxy}pentanoic acid], for which the IC50 in test [1] was 0.3 µM. Besides, in test [2], the “hypocholesterolaemic effect compared with bezafibrate (in words)” value is recorded as “hypocholesterolaemic effect at least as great as bezafibrate” and the “triglyceride-lowering effectiveness compared with bezafibrate (in words)” value was “statistically at least as effective as bezafibrate”. Also, in test [2] (setting [3]), the change in vivo at 200 mg/kg was -68%. In addition, in test [2] (setting [4]), the change in vivo at 200 mg/kg is -84%.

Turning to `Cc1cc(OCCc2cccc(OCCCC(C)(C)C(=O)O)c2)c(C)c(C)c1O` [Example 14, 2,2-dimethyl-5-{3-[2-(4-hydroxy-2,3,5-trimethylphenoxy)ethyl]phenoxy}pentanoic acid], the IC50 in test [1] worked out at 0.088 µM.

Take `Cc1cc(OCCCc2ccc(OCCCC(C)(C)C(=O)O)cc2)c(C)c(C)c1O` [Example 15, 2,2-dimethyl-5-{4-[3-(4-hydroxy-2,3,5-trimethylphenoxy)propyl]phenoxy}pentanoic acid]: the IC50 in test [1] came to 0.097 µM. Also, in test [2], the “hypocholesterolaemic effect compared with bezafibrate (in words)” value is listed as “hypocholesterolaemic effect at least as great as bezafibrate” and the “triglyceride-lowering effectiveness compared with bezafibrate (in words)” value was “statistically at least as effective as bezafibrate”. Further, in test [2] (setting [3]), the change in vivo at 200 mg/kg is -77%. Further, the change in vivo at 200 mg/kg in test [2] (setting [4]) is -93%.

For `CC(C)(Sc1cc(C(C)(C)C)c(O)c(C(C)(C)C)c1)Sc1cc(C(C)(C)C)c(O)c(C(C)(C)C)c1` [Probucol, probucol, reference compound], the IC50 in test [1] was 5.8 µM.

For `Cc1c(C)c2c(c(C)c1O)CCC(C)(C(=O)O)O2` (centres unmarked) [Trolox, trolox, reference compound], the IC50 in test [1] was found to be 1.6 µM.
